≈ marks a conversion by molar mass, not a printed value.
Tested on: Escherichia coli
Assay: minimum inhibitory concentration (MIC)
Method: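 Broth microdilution MIC (Sensititre BOPO7F bovine plate, CLSI methods) of 19 antimicrobials against field isolates of P. multocida, M. haemolytica, H. somni (deep nasopharyngeal swabs) and E. coli, Enterococcus spp. (rectal swabs) from weaned dairy heifers. Incubation 16-24 h at 35 C. MIC is the lowest concentration preventing visible growth. Values with <= or > lie at the tested range limits. Trimethoprim-sulfamethoxazole is given as the trimethoprim component of a 1:19 mixture.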

CC1(C)S[C@@H]2[C@H](NC(=O)[C@H](N)c3ccccc3)C(=O)N2[C@H]1C(=O)O [Ampicillin] gave a minimum inhibitory concentration (isolate (source animal id): 8) of 4 µg/mL (≈ 11.4 µM), a minimum inhibitory concentration (isolate (source animal id): 9) greater than 16 µg/mL and a minimum inhibitory concentration (isolate (source animal id): 10) of 2 µg/mL (≈ 5.72 µM). The minimum inhibitory concentration (isolate (source animal id): 11) was 4 µg/mL (≈ 11.4 µM), the minimum inhibitory concentration (isolate (source animal id): 12) was greater than 16 µg/mL and the minimum inhibitory concentration (isolate (source animal id): 13) was greater than 16 µg/mL. For the same compound, the minimum inhibitory concentration (isolate (source animal id): 14) was greater than 16 µg/mL, the minimum inhibitory concentration (isolate (source animal id): 15) was 2 µg/mL (≈ 5.72 µM) and the minimum inhibitory concentration (isolate (source animal id): 16) was 4 µg/mL (≈ 11.4 µM). It also gave a minimum inhibitory concentration (isolate (source animal id): 98) of 4 µg/mL (≈ 11.4 µM), a minimum inhibitory concentration (isolate (source animal id): 99) of 4 µg/mL (≈ 11.4 µM) and a minimum inhibitory concentration (isolate (source animal id): 100) of 2 µg/mL (≈ 5.72 µM). The minimum inhibitory concentration (isolate (source animal id): 101) was 1 µg/mL (≈ 2.86 µM), the minimum inhibitory concentration (isolate (source animal id): 102) was 2 µg/mL (≈ 5.72 µM) and the minimum inhibitory concentration (isolate (source animal id): 103) was greater than 16 µg/mL. It also gave a minimum inhibitory concentration (isolate (source animal id): 104) of 4 µg/mL (≈ 11.4 µM), a minimum inhibitory concentration (isolate (source animal id): 105) of 4 µg/mL (≈ 11.4 µM) and a minimum inhibitory concentration (isolate (source animal id): 106) of 2 µg/mL (≈ 5.72 µM). For the same compound, the minimum inhibitory concentration (isolate (source animal id): 107) was 2 µg/mL (≈ 5.72 µM), the minimum inhibitory concentration (isolate (source animal id): 108) was 4 µg/mL (≈ 11.4 µM) and the minimum inhibitory concentration (isolate (source animal id): 109) was 2 µg/mL (≈ 5.72 µM). For the same compound, the minimum inhibitory concentration (isolate (source animal id): 110) was 4 µg/mL (≈ 11.4 µM), the minimum inhibitory concentration (isolate (source animal id): 111) was 2 µg/mL (≈ 5.72 µM) and the minimum inhibitory concentration (isolate (source animal id): 112) was 2 µg/mL (≈ 5.72 µM). The minimum inhibitory concentration (isolate (source animal id): 113) was 4 µg/mL (≈ 11.4 µM), the minimum inhibitory concentration (isolate (source animal id): 114) was 4 µg/mL (≈ 11.4 µM) and the minimum inhibitory concentration (isolate (source animal id): 115) was greater than 16 µg/mL. The minimum inhibitory concentration (isolate (source animal id): 116) was 2 µg/mL (≈ 5.72 µM), the minimum inhibitory concentration (isolate (source animal id): 117) was 2 µg/mL (≈ 5.72 µM) and the minimum inhibitory concentration (isolate (source animal id): 118) was 4 µg/mL (≈ 11.4 µM). It also gave a minimum inhibitory concentration (isolate (source animal id): 119) of 8 µg/mL (≈ 22.9 µM), a minimum inhibitory concentration (isolate (source animal id): 120) greater than 16 µg/mL and a minimum inhibitory concentration (isolate (source animal id): 121) of 2 µg/mL (≈ 5.72 µM). The minimum inhibitory concentration (isolate (source animal id): 122) was 1 µg/mL (≈ 2.86 µM), the minimum inhibitory concentration (isolate (source animal id): 123) was 2 µg/mL (≈ 5.72 µM) and the minimum inhibitory concentration (isolate (source animal id): 124) was 4 µg/mL (≈ 11.4 µM). The minimum inhibitory concentration (isolate (source animal id): 125) was 2 µg/mL (≈ 5.72 µM), the minimum inhibitory concentration (isolate (source animal id): 126) was 8 µg/mL (≈ 22.9 µM) and the minimum inhibitory concentration (isolate (source animal id): 127) was 2 µg/mL (≈ 5.72 µM). It also gave a minimum inhibitory concentration (isolate (source animal id): 128) greater than 16 µg/mL, a minimum inhibitory concentration (isolate (source animal id): 129) of 4 µg/mL (≈ 11.4 µM) and a minimum inhibitory concentration (isolate (source animal id): 130) of 4 µg/mL (≈ 11.4 µM). For the same compound, the minimum inhibitory concentration (isolate (source animal id): 131) was 2 µg/mL (≈ 5.72 µM), the minimum inhibitory concentration (isolate (source animal id): 132) was greater than 16 µg/mL and the minimum inhibitory concentration (isolate (source animal id): 133) was 4 µg/mL (≈ 11.4 µM). It also gave a minimum inhibitory concentration (isolate (source animal id): 134) of 4 µg/mL (≈ 11.4 µM), a minimum inhibitory concentration (isolate (source animal id): 135) of 2 µg/mL (≈ 5.72 µM) and a minimum inhibitory concentration (isolate (source animal id): 136) of 4 µg/mL (≈ 11.4 µM). It also gave a minimum inhibitory concentration (isolate (source animal id): 137) of 4 µg/mL (≈ 11.4 µM) and a minimum inhibitory concentration (isolate (source animal id): 138) of 4 µg/mL (≈ 11.4 µM).
